For one assay, the system named is Proteus vulgaris. In words: Antibacterial activity against Proteus vulgaris. It counts as functional.
The next assay has as its system Salmonella typhimurium. In words: Antibacterial activity against Salmonella typhimurium. It is filed as functional, Salmonella enterica subsp. enterica serovar Typhimurium. The note with it: Salmonella enterica.
Assay [1] has as its system Staphylococcus aureus. Kind of assay: Antibacterial activity against Staphylococcus aureus. It is filed as functional.
For assay [2], the system named is Klebsiella aerogenes. In words: Antibacterial activity against Klebsiella aerogenes. It is filed as functional.
Assay [3] relates to Staphylococcus epidermidis. In words: Antibacterial activity against Staphylococcus epidermidis. It is filed as functional.
In the next assay the test system is Enterococcus faecalis. In words: Antibacterial activity against Enterococcus faecalis. It is filed as functional.
The subject of assay [4] is Escherichia coli. Kind of assay: Antibacterial activity against Escherichia coli. It counts as functional.
A further assay has as its system Candida albicans. Kind of assay: Antifungal activity against Candida albicans. It counts as functional.
The subject of a further assay is Pseudomonas aeruginosa. Kind of assay: Antibacterial activity against Pseudomonas aeruginosa. It is filed as functional.
Assay [5] relates to Clostridioides difficile. In words: Antibacterial activity against Clostridium difficile ATCC 43603 assessed as zone of inhibition at 2.5 ug/disc after 24 hrs. It is filed as functional. The note with it: ATCC 43603, 24 h, read-out: IZ.
Assay [6] concerns Clostridioides difficile. In words: Antibacterial activity against Clostridium difficile R20291 assessed as zone of inhibition at 2.5 ug/disc after 24 hrs. Particulars: read-out: IZ. It is filed as functional.
In assay [7] the test system is Clostridioides difficile. In words: Antibacterial activity against Clostridium difficile 630 assessed as zone of inhibition at 2.5 ug/disc after 24 hrs. It is filed as functional. Particulars: Clostridioides difficile, 630, 24 h; read-out: IZ.
For assay [8], the system named is Klebsiella aerogenes. Kind of assay: Antibacterial activity against Enterobacter aerogenes PTCC 1221 after 18 hrs by two fold serial dilution. The note with it: PTCC 1221, 18 h. It is filed as functional.
Assay [9] deals with Escherichia coli. Kind of assay: Antibacterial activity against Escherichia coli ATCC 8739 after 18 hrs by two fold serial dilution. It counts as functional. The note with it: ATCC 8739, 18 h.
Assay [10] deals with Staphylococcus aureus. In words: Antibacterial activity against Staphylococcus aureus ATCC 6538 after 18 hrs by two fold serial dilution. It counts as functional. The note with it: ATCC 6538, 18 h.
Another assay has as its system Klebsiella pneumoniae. In words: Antibacterial activity against Klebsiella pneumoniae ATCC 10031 after 18 hrs by two fold serial dilution. The note with it: ATCC 10031, 18 h. It is filed as functional.
Assay [11] has as its system Bacillus subtilis. Kind of assay: Antibacterial activity against Bacillus subtilis PTCC 1023 after 18 hrs by two fold serial dilution. It counts as functional. Particulars: PTCC 1023, 18 h.
Assay [12] relates to Bacillus subtilis. Kind of assay: Antibacterial activity against Bacillus subtilis. It is filed as functional.
The subject of a further assay is Proteus. Kind of assay: Antibacterial activity against Proteus. It is filed as functional.
For assay [13], the system named is Helicobacter pylori. In words: Antibacterial activity against Helicobacter pylori. It is filed as functional.
In assay [14] the test system is Helicobacter pylori. In words: Antibacterial activity against Helicobacter pylori NCTC 11637. It is filed as functional.
Assay [15] concerns Helicobacter pylori. In words: Antibacterial activity against metronidazole-resistant Helicobacter pylori clinical isolates. It counts as functional.
Assay [16] relates to Helicobacter pylori. In words: Antibacterial activity against drug-sensitive Helicobacter pylori assessed as zone of inhibition at 8 ug/disc. It counts as functional. Particulars: read-out: IZ.
For assay [17], the system named is Helicobacter pylori. In words: Antibacterial activity against Helicobacter pylori clinical isolate assessed as zone of inhibition at 8 ug/disc. It is filed as functional. Particulars: read-out: IZ.
Assay [18] concerns Staphylococcus epidermidis. Kind of assay: Antibacterial activity against Staphylococcus epidermidis ATCC 12228 after 18 hrs by two fold serial dilution. It is filed as functional. The note with it: ATCC 12228, 18 h.

≈ marks a conversion by molar mass, not a printed value.

What is called MIC is the least concentration at which growth counts as inhibited. A high value points to weaker potency. As usually defined, the MIC90 is the lowest concentration that inhibits either 90% of growth or 90% of the strains tested, depending on the study.

Take `Cc1ncc([N+](=O)[O-])n1CCN1C(=O)S/C(=C\c2ccc(Cl)cc2)C1=O`: the MIC (in the assay with Proteus vulgaris; in the assay with Salmonella typhimurium; against Staphylococcus aureus [1]; in the assay on Klebsiella aerogenes [2]; in [3]; with Enterococcus faecalis) was 31.2 to 500 µg/mL (≈ 79.6 to 1270 µM) throughout. Also, the MIC against Escherichia coli [4], in the assay with Candida albicans and against Pseudomonas aeruginosa was 31.2 to 500 µg/mL (≈ 79.6 to 1270 µM) each time.
As to `C/C=C/c1nc(CS(=O)(=O)c2ccccc2)c([N+](=O)[O-])n1C`, the zone of inhibition at 2.5 µg/disc with Clostridioides difficile [5], in the assay on Clostridioides difficile [6] and with Clostridioides difficile [7] was 13.5 to 24.5 mm throughout.
For `COc1ccc(-c2nnc(Sc3c([N+](=O)[O-])ncn3C)s2)cc1`, the MIC against Klebsiella aerogenes [8] was > 64 µg/mL; against Escherichia coli [9], > 64 µg/mL; with Staphylococcus aureus [10] it was 4 to 32 µg/mL (≈ 11.4 to 91.6 µM); in the assay with Klebsiella pneumoniae, > 64 µg/mL; against Bacillus subtilis [11], > 64 µg/mL.
As to `CC(=O)N(Cc1ccc(Cl)cc1Cl)c1ccc(S(=O)(=O)NCCCn2c([N+](=O)[O-])cnc2C)cc1`, the MIC with Salmonella typhimurium, in the assay on Staphylococcus aureus [1], in the assay on Bacillus subtilis [12], in the assay with Escherichia coli [4], in the assay with Pseudomonas aeruginosa and against Proteus was 16 to 64 µg/mL (≈ 29.6 to 118 µM) throughout.
`Cc1ncc([N+](=O)[O-])n1CCOc1nonc1S(=O)(=O)c1ccccc1`: the MIC90 fell in the range of 1 to 4 µg/mL (≈ 2.64 to 10.5 µM) in the assay on Helicobacter pylori [13], 0.5 to 32 µg/mL (≈ 1.32 to 84.4 µM) in the assay on Helicobacter pylori [14] and 0.5 to 32 µg/mL (≈ 1.32 to 84.4 µM) in the assay with Helicobacter pylori [15].
Turning to `Cc1ncc([N+](=O)[O-])n1CCN1C(=O)S/C(=C\c2ccco2)C1=O`, the MIC (in the assay with Proteus vulgaris; in the assay on Salmonella typhimurium; in the assay with Staphylococcus aureus [1]; in the assay on Klebsiella aerogenes [2]; in [3]; with Enterococcus faecalis) was 31.2 to 500 µg/mL (≈ 89.7 to 1440 µM) throughout. For the same compound, the MIC in the assay with Escherichia coli [4], against Candida albicans and against Pseudomonas aeruginosa was 31.2 to 500 µg/mL (≈ 89.7 to 1440 µM) throughout.
As for `Cc1ncc([N+](=O)[O-])n1CCNCc1nonc1C(N)=O`, the MIC90 in the assay on Helicobacter pylori [13] and against Helicobacter pylori [14] was 0.5 to 32 µg/mL (≈ 1.69 to 108 µM) in each case.
Turning to `Cc1ncc([N+](=O)[O-])n1CCN1C(=O)S/C(=C\c2cccs2)C1=O`, the MIC (in the assay with Proteus vulgaris; in the assay on Salmonella typhimurium; in the assay on Staphylococcus aureus [1]; against Klebsiella aerogenes [2]; in [3]; with Enterococcus faecalis) was 31.2 to 500 µg/mL (≈ 85.8 to 1370 µM) in each case. The MIC with Escherichia coli [4], with Candida albicans and against Pseudomonas aeruginosa was 31.2 to 500 µg/mL (≈ 85.8 to 1370 µM) throughout.
Regarding `Cc1ncc([N+](=O)[O-])n1CCOc1no[n+]([O-])c1-c1ccccc1`, the values for the MIC90 against Helicobacter pylori [13], against Helicobacter pylori [14] and against Helicobacter pylori [15] were 1 to 4 µg/mL (≈ 3.02 to 12.1 µM), 0.5 to 32 µg/mL (≈ 1.51 to 96.6 µM) and 0.5 to 32 µg/mL (≈ 1.51 to 96.6 µM), respectively.
On to `O=C(N[C@H](CO)[C@H](O)c1ccc([N+](=O)[O-])cc1)C(Cl)Cl` [CHLORAMPHENICOL], for which the MIC (against Proteus vulgaris; in the assay on Salmonella typhimurium; against Staphylococcus aureus [1]; in the assay with Klebsiella aerogenes [2]; in assay [3]; against Enterococcus faecalis) was 7.8 to 250 µg/mL (≈ 24.1 to 774 µM) each time. Besides, the MIC in the assay on Escherichia coli [4], in the assay with Candida albicans and against Pseudomonas aeruginosa was 7.8 to 250 µg/mL (≈ 24.1 to 774 µM) in each case.
With `Cn1c([N+](=O)[O-])cnc1-c1nnc(S)s1`, the zone of inhibition at 8 µg/disc in the assay on Helicobacter pylori [16] and in the assay with Helicobacter pylori [17] was 20.9 to 50 mm in each case.
`Cn1cnc([N+](=O)[O-])c1S(=O)(=O)c1nnc(-c2ccc([N+](=O)[O-])o2)s1`: the MIC (in [18]; with Escherichia coli [9]; against Staphylococcus aureus [10]; against Klebsiella pneumoniae; against Bacillus subtilis [11]) was 2 to 64 µg/mL (≈ 5.18 to 166 µM) in each case.
For the compound `Cc1ncc([N+](=O)[O-])n1CCNCc1nonc1C#N`, the MIC90 against Helicobacter pylori [13] and in the assay with Helicobacter pylori [14] was 0.5 to 32 µg/mL (≈ 1.8 to 115 µM) each time.
With `Cc1ncc([N+](=O)[O-])n1CCOc1nonc1-c1ccccc1`, the MIC90 in the assay on Helicobacter pylori [13] is 1 to 4 µg/mL (≈ 3.17 to 12.7 µM); in the assay on Helicobacter pylori [14], 0.5 to 32 µg/mL (≈ 1.59 to 101 µM); against Helicobacter pylori [15], 0.5 to 32 µg/mL (≈ 1.59 to 101 µM).
